Values quoted from earlier work, collected in US5348748A, “Pulsatile once-a-day delivery systems for minocycline” (American Cyanamid Company, priority 1993, dated 1994).

Columns and labels:
[1] = taken with food
[2] = system: wide range of gram-negative and gram-positive bacteria; conditions: PDR 43rd Ed.

For `CN(C)c1ccc(O)c2c1C[C@H]1C[C@H]3[C@H](N(C)C)C(=O)C(C(N)=O)=C(O)[C@@]3(O)C(=O)C1=C2O` [minocycline, 7-dimethylamino-6-deoxy-6-demethyltetracycline], the half life [1] is given as 14 to 16 h, the “absorption in the lower gastrointestinal tract in words” value is given as “reduced absorption in the lower gastrointestinal tract” and the “susceptibility of organisms in words” value [2] is given as “susceptible”.
